Data set [1] relates to RD-ES (Ewing's sarcoma) xenografts. Nature of the data set: Xenograft efficacy study in mice. It is filed as in vivo. To be noted: RD-ES xenograft model. From the text:
Although proliferation of SK-ES-1 and SJCRH30 cells was inhibited by MEDI-573 in vitro in the absence of exogenous IGFs, the in vivo growth of these two models was not effected by MEDI-573 treatment.
The combination treatments were tolerated as no significant body weight loss was observed (FIG. 17B).
For in vivo efficacy studies, five million sarcoma cells in 50% matrigel were inoculated subcutaneously into each female athymic nude mice. When tumors reach approximately 150-200 mm^3, mice were randomly assigned into groups (10 mice per group). MEDI-573 was administrated intraperitoneally twice per week at indicated doses. The dose regimen for AZD2014 was oral once every day, for rapamycin was intraperitoneal injection every 3 days. Tumor volumes were measured twice weekly with calipers. Tumor growth inhibition was calculated on the last day of study relative to the initial and final mean tumor volume of the control group.

A further data set deals with RD-ES cells. Nature of the data set: Cytotoxicity assay, MEDI-573 and mTOR inhibitors. The following applies: agents alone or in combination (FIG. 14). In kind it is cell-based.
The subject of the next data set is pS6K. The experiment in a line: Immunoblot of cell lysates after MEDI-573, mTORi, combination. In kind it is cell-based. As to the method:
(§1) To examine the effect of MEDI-573, mTORi, and combination of both on IGF signaling, RD-ES, SJSA-1, and KHOS cells were treated with these agents for 4 hours. After separation of the cell lysates by gel electrophoresis, the proteins were detected by immunoblotting.

The subject of the next data set is p4EBP1. Described as above. In kind it is cell-based. To be noted: single agent, 4 hours. Here is the method:
as §1

In a further data set the test system is pAKT. Described as above. It is filed as cell-based. The following applies: all 3 cell lines, 4 hours. Here is the method:
as §1

On to `CNC(=O)c1cccc(-c2ccc3c(N4CCOC[C@@H]4C)nc(N4CCOC[C@@H]4C)nc3n2)c1` [AZD2014], for which the tumor growth inhibition in data set [1] (AZD2014 combination study (FIG. 16A)) worked out at 51%. For the same compound, the “decrease in cell viability” value with RD-ES cells came out at 55%. Moreover, the “phosphorylation of pS6K” value in the data set with pS6K (RD-ES cells) is “inhibited phosphorylation of pS6K”; in the data set on pS6K (SJSA-1 or KHOS cells), “did not inhibit phosphorylation of pS6K”.

Turning to `CO[C@H]1C[C@@H]2CC[C@@H](C)[C@@](O)(O2)C(=O)C(=O)N2CCCC[C@H]2C(=O)O[C@H]([C@H](C)C[C@@H]2CC[C@@H](O)[C@H](OC)C2)CC(=O)[C@H](C)/C=C(\C)[C@@H](O)[C@@H](OC)C(=O)[C@H](C)C[C@H](C)/C=C/C=C/C=C/1C` [rapamycin], the tumor growth inhibition in data set [1] (rapamycin combination study (FIG. 17A)) is recorded as 44%. Besides, the “decrease in cell viability” value in the data set with RD-ES cells is recorded as 34%. Also, the “phosphorylation of 4EBP1” value in the data set on p4EBP1 is recorded as “did not have effect”. In addition, the “phosphorylation of AKT” value with pAKT was “induced phosphorylation of AKT”. Besides, in the data set on pS6K (all 3 cell lines (RD-ES, SJSA-1, KHOS), 4 hours), the pS6K entry is given as “completely inhibited pS6K”.
